Where two headings read alike, the source gives them in different places.

For assay [1], the target named is hNav1.1 (SCN1A) (Homo sapiens, UniProt P35498). Kind of assay: Use-dependent inhibition of the CNS Nav1.1 sodium channel. Format: cell-based. The settings on record: use-dependent block, 25 Hz, pulse 20, read-out: Nav1.1 UDB 25 Hz 10 uM. The gist of the method: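 HEK-293 cells stably expressing WT hNav1.1, automated whole-cell patch clamp at 23-25 °C with CsF-based internal and NaCl external solutions, pH 7.35. Compound applied twice, 200 s equilibration; block measured at pulse 20 of a 25 Hz train (0 mV, 20 ms) from −120 mV, as mean % inhibition versus compound-free.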

Assay [2] has as its target wild-type human cardiac sodium channel, hNav1.5 (Homo sapiens, UniProt Q14524). Kind of assay: Peak INa screening assay (tonic block and use-dependent block). Format: cell-based. An outline of the steps:
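HEK293 cells stably expressing hNav1.5 (no beta subunits), automated whole-cell patch clamp at 23-25° C, 40 mM Na+ bath (choline substitution), pH 7.35. Compound at 1 or 3 μM, added twice then 200 s equilibration; tonic block by steps to −20 mV from −100 mV at 0.1 Hz, use-dependent block at pulse 50 of a 3 Hz train, rundown-corrected versus compound-free.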

Where [3] appears, read: tonic block of Peak INa, 0.1 Hz, holding -100 mV, read-out: Peak TB 3 uM.
Setting [4] is: use-dependent block of Peak INa, 3 Hz, pulse 50, read-out: Peak UDB 3 Hz 3 uM.

Chain of wild-type human cardiac sodium channel, hNav1.5 (Q14524 whole entry): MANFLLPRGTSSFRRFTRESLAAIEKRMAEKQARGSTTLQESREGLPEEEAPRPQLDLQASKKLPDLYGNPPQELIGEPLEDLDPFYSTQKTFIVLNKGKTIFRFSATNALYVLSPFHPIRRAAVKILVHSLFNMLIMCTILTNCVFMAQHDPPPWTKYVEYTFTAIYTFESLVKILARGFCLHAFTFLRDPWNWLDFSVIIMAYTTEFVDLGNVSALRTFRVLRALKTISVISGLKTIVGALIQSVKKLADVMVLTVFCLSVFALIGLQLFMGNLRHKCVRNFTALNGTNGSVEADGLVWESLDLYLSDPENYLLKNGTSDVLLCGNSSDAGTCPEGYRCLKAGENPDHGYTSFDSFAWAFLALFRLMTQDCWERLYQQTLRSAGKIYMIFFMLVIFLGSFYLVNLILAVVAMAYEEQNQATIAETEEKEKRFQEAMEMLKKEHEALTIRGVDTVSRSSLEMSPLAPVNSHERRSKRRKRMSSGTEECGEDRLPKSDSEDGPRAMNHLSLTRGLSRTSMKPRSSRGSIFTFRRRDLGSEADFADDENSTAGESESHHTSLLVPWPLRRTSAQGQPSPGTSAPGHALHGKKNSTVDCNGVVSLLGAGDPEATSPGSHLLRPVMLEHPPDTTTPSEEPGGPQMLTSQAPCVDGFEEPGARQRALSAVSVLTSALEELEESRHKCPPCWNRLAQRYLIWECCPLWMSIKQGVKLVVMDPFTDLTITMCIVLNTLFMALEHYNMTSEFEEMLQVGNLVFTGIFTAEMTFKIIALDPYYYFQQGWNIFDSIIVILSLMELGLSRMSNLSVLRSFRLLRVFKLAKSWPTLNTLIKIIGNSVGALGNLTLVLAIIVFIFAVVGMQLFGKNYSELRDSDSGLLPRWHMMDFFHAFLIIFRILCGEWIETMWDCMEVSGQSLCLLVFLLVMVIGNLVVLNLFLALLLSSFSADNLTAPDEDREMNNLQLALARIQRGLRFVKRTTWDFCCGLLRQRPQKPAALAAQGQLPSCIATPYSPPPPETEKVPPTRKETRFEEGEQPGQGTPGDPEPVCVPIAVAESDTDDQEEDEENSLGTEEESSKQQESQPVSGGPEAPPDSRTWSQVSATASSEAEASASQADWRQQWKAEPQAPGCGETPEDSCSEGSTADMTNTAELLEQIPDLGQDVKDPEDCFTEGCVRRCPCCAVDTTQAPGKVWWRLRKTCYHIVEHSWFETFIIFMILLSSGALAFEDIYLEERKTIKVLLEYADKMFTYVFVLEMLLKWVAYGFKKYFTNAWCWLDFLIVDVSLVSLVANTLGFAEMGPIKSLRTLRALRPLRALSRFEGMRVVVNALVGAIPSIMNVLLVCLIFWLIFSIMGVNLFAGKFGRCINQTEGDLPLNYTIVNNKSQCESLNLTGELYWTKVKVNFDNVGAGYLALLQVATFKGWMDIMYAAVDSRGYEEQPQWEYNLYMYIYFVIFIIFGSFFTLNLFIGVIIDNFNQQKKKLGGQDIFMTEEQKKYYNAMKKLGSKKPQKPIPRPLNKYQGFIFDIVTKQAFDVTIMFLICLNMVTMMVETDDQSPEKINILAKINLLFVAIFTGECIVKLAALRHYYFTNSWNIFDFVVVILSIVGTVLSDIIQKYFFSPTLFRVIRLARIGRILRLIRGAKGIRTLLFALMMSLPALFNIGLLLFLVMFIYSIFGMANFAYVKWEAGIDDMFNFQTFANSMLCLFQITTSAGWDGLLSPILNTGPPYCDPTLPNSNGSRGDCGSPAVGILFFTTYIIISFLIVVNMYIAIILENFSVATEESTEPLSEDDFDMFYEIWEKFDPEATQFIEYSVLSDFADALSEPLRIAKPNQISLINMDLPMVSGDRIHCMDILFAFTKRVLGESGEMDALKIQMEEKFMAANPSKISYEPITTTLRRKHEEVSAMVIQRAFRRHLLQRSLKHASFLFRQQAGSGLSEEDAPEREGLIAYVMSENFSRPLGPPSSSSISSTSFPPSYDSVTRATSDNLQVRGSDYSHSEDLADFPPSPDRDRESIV

Consider `FC(F)(F)Oc1ccc(-c2ccc3onc(-n4ccnc4)c3c2)cc1` [Example 132, 3-(1H-imidazol-1-yl)-5-(4-(trifluoromethoxy)phenyl)benzo[d]isoxazole], for which the inhibition at 10 µM in assay [1] is below 5%. Besides, the inhibition at 3 µM in assay [2] (setting [3]) worked out at 20.6%; in assay [2] (setting [4]), 5.1%.
Turning to `CN(C)c1noc2ccc(-c3ccc(OC(F)(F)F)cc3)cc12` [Example 133, N,N-dimethyl-5-(4-(trifluoromethoxy)phenyl)benzo[d]isoxazol-3-amine], the inhibition at 10 µM in assay [1] was 22.1%. The inhibition at 3 µM in assay [2] (setting [3]) was 38.8%; in assay [2] (setting [4]), 5.2%.
For `O=C1CCCN1CCNc1noc2ccc(-c3ccc(OC(F)(F)F)cc3)cc12` [Example 135, 1-(2-((5-(4-(trifluoromethoxy)phenyl)benzo[d]isoxazol-3-yl)amino)ethyl)pyrrolidin-2-one], in that order: 87.2%, 29.3% and 18%.
For `FC(F)(F)Oc1ccc(-c2ccc3onc(-n4cncn4)c3c2)cc1` [Example 136, 3-(1H-1,2,4-triazol-1-yl)-5-(4-(trifluoromethoxy)phenyl)benzo[d]isoxazole], in that order: below 5%, 10.5% and below 5%.
In the case of `FC(F)(F)Oc1ccc(-c2ccc3onc(NCCn4cncn4)c3c2)cc1` [Example 137, N-(2-(1H-1,2,4-triazol-1-yl)ethyl)-5-(4-(trifluoromethoxy)phenyl)benzo[d]isoxazol-3-amine], the inhibition at 10 µM in assay [1] came to 82.6%. Moreover, the inhibition at 3 µM was found to be 43.9% in assay [2] (setting [3]) and 17.4% in assay [2] (setting [4]).
Turning to `Cc1cn(-c2noc3ccc(-c4ccc(OC(F)(F)F)cc4)cc23)cn1` [Example 139, 3-(4-methyl-1H-imidazol-1-yl)-5-(4-(trifluoromethoxy)phenyl)benzo[d]isoxazole], the inhibition at 10 µM in assay [1] is 8.8%. Moreover, the inhibition at 3 µM in assay [2] (setting [3]) is 15.6%; in assay [2] (setting [4]), below 5%.
In the case of `FC(F)(F)Oc1ccc(-c2ccc3onc(-n4cnc(Cl)c4)c3c2)cc1` [Example 140, 3-(4-chloro-1H-imidazol-1-yl)-5-(4-(trifluoromethoxy)phenyl)benzo[d]isoxazole], the inhibition at 10 µM in assay [1] is below 5%. Further, the inhibition at 3 µM was 8.5% in assay [2] (setting [3]) and below 5% in assay [2] (setting [4]).
As for `Cc1ncn(-c2noc3ccc(-c4ccc(OC(F)(F)F)cc4)cc23)n1` [Example 141, 3-(3-methyl-1H-1,2,4-triazol-1-yl)-5-(4-(trifluoromethoxy)phenyl)benzo[d]isoxazole], the inhibition at 10 µM in assay [1] is 31.5%. Besides, the inhibition at 3 µM in assay [2] (setting [3]) was 17.8%; in assay [2] (setting [4]), below 5%.
Consider `FC(F)(F)Oc1ccc(-c2ccc3onc(-n4cnc(-c5ccccc5)c4)c3c2)cc1` [Example 142, 3-(4-phenyl-1H-imidazol-1-yl)-5-(4-(trifluoromethoxy)phenyl)benzo[d]isoxazole], for which the inhibition at 10 µM in assay [1] came to 59%. Moreover, the inhibition at 3 µM was found to be 15.6% in assay [2] (setting [3]) and 13.9% in assay [2] (setting [4]).
For `CC(C)(C)c1cn(-c2noc3ccc(-c4ccc(OC(F)(F)F)cc4)cc23)cn1` [Example 143, 3-(4-(tert-butyl)-1H-imidazol-1-yl)-5-(4-(trifluoromethoxy)phenyl)benzo[d]isoxazole], in that order: 66.6%, 39.8% and 11.2%.
With `CC(C)c1nccn1-c1noc2ccc(-c3ccc(OC(F)(F)F)cc3)cc12` [Example 144, 3-(2-isopropyl-1H-imidazol-1-yl)-5-(4-(trifluoromethoxy)phenyl)benzo[d]isoxazole], the inhibition at 10 µM in assay [1] worked out at 73.2%. Besides, the inhibition at 3 µM in assay [2] (setting [3]) is 46.9%; in assay [2] (setting [4]) it was below 5%.
For `FC(F)(F)Oc1ccc(-c2ccc3onc(-n4cnc(C(F)(F)F)c4)c3c2)cc1` [Example 145, 5-(4-(trifluoromethoxy)phenyl)-3-(4-(trifluoromethyl)-1H-imidazol-1-yl)benzo[d]isoxazole], in that order: 81.4%, 93% and below 5%.
With `OCc1cn(-c2noc3ccc(-c4ccc(OC(F)(F)F)cc4)cc23)cn1` [Example 146, (1-(5-(4-(trifluoromethoxy)phenyl)benzo[d]isoxazol-3-yl)-1H-imidazol-4-yl)methanol], the inhibition at 10 µM in assay [1] stood at 87.3%. The inhibition at 3 µM was determined as 28.8% in assay [2] (setting [3]) and 25.5% in assay [2] (setting [4]).
With `Nc1noc2ccc(-c3ccc(OC(F)(F)F)cc3)cc12` [Example 147, 5-(4-(trifluoromethoxy)phenyl)benzo[d]isoxazol-3-amine], the inhibition at 10 µM in assay [1] was 32%. The figures for the inhibition at 3 µM in assay [2] (setting [3]) and in assay [2] (setting [4]) were 26% and 3%, respectively.
For `COc1ccnc(CNc2noc3ccc(-c4ccc(OC(F)(F)F)cc4)cc23)n1` [Example 149, N-((4-methoxypyrimidin-2-yl)methyl)-5-(4-(trifluoromethoxy)phenyl)benzo[d]isoxazol-3-amine], in that order: 50%, 86.4% and below 5%.
Regarding `CCN(CC)C(=O)COc1noc2ccc(-c3ccc(OC(F)(F)F)cc3)cc12` [Example 150, N,N-diethyl-2-((5-(4-(trifluoromethoxy)phenyl)benzo[d]isoxazol-3-yl)oxy)acetamide], the inhibition at 10 µM in assay [1] is 62.8%. In addition, the inhibition at 3 µM in assay [2] (setting [3]) came out at 58.5%; in assay [2] (setting [4]), 9.3%.
Take `FC(F)(F)Oc1ccc(-c2ccc3onc(OCc4cnccn4)c3c2)cc1` [Example 151, 3-(pyrazin-2-ylmethoxy)-5-(4-(trifluoromethoxy)phenyl)benzo[d]isoxazole]: the inhibition at 10 µM in assay [1] was 20%. The inhibition at 3 µM was 43.3% in assay [2] (setting [3]) and below 5% in assay [2] (setting [4]).
As to `Cc1nccnc1COc1noc2ccc(-c3ccc(OC(F)(F)F)cc3)cc12` [Example 152, 3-((3-methylpyrazin-2-yl)methoxy)-5-(4-(trifluoromethoxy)phenyl)benzo[d]isoxazole], in assay [1], the inhibition at 10 µM was found to be 11.4%. The inhibition at 3 µM in assay [2] (setting [3]) is 30.6%; in assay [2] (setting [4]), below 5%.
As for `Cc1nnc(C(C)Oc2noc3ccc(-c4ccc(OC(F)(F)F)cc4)cc23)o1` (centres unmarked) [Example 153, 3-(1-(5-methyl-1,3,4-oxadiazol-2-yl)ethoxy)-5-(4-(trifluoromethoxy)phenyl)benzo[d]isoxazole], in assay [1], the inhibition at 10 µM was 73.1%. In assay [2] (setting [3]), the inhibition at 3 µM came out at 57.6%.
For the compound `FC(F)(F)Oc1ccc(-c2ccc3onc(OCc4nnc(C5CC5)s4)c3c2)cc1` [Example 154, 3-((5-cyclopropyl-1,3,4-thiadiazol-2-yl)methoxy)-5-(4-(trifluoromethoxy)phenyl)benzo[d]isoxazole], the inhibition at 10 µM in assay [1] is 19.8%. Also, the inhibition at 3 µM is 7.68% in assay [2] (setting [3]) and below 5% in assay [2] (setting [4]).
Taken in the same sequence, the figures for `Cc1nnc(COc2noc3c(F)cc(-c4ccc(OC(F)(F)F)cc4)cc23)o1` [Example 155, 7-fluoro-3-((5-methyl-1,3,4-oxadiazol-2-yl)methoxy)-5-(4-(trifluoromethoxy)phenyl)benzo[d]isoxazole] were 63.5%, 24.8% and 8.4%.
In the case of `FC(F)(F)Oc1ccc(-c2ccc3onc(NCc4ncco4)c3c2)cc1` [Example 156, N-(oxazol-2-ylmethyl)-5-(4-(trifluoromethoxy)phenyl)benzo[d]isoxazol-3-amine], in assay [1], the inhibition at 10 µM is 26.5%. Further, the inhibition at 3 µM in assay [2] (setting [3]) is 10.4%; in assay [2] (setting [4]), below 5%.
Taken in the same sequence, the figures for `CC(C)(C)OC(=O)COc1noc2ccc(-c3ccc(OC(F)(F)F)cc3)cc12` [Example 157, tert-butyl 2-((5-(4-(trifluoromethoxy)phenyl)benzo[d]isoxazol-3-yl)oxy)acetate] were below 5%, 15.6% and below 5%.

The record behind these values is patent publication US9416115B2, “Fused heterocyclic compounds as ion channel modulators” (Gilead Sciences, Inc., priority 2013, dated 2016).
